According to patent US20140148492A1, “BICYCLOSUBSTITUTED PYRAZOLE COMPOUNDS FOR TREATING HAIR LOSS” (Boehringer Ingelheim International GmbH, priority 2012, published 2014):

Molecular target: T1, human CRTH2 receptor (Homo sapiens, UniProt Q9Y5Y4)
T1 construct: host or cells: CHO-K1 (CHO-K1-hCRTH2 cells), membranes prepared in house
T1 sequence (Q9Y5Y4 1-395): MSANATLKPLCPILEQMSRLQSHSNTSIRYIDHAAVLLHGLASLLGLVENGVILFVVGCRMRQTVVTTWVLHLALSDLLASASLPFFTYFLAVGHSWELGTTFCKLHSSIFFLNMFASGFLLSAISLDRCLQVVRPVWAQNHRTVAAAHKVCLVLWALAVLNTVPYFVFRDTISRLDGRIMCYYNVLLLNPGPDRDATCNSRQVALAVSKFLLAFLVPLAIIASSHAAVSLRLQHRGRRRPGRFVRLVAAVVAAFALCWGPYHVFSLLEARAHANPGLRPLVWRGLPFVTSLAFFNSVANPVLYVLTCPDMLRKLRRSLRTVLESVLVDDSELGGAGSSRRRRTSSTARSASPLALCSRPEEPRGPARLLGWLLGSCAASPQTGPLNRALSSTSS
Test: CRTH2 receptor radioligand binding assay (SPA, [3H]-PGD2)
Conditions: displacement of [3H]-PGD2 (1 nM) from CHO-K1-hCRTH2 cell membranes, SPA format, 3 h room temperature
Description: The binding of CRTH2 antagonists is determined using membranes prepared from Chinese hamster ovary cells (CHO-K1 cells) transfected with the human CRTH2 receptor (CHO-K1-hCRTH2 cells, Perkin Elmer, Cat No ES-561-C). To produce cell membranes the CHO-K1-hCRTH2 cells are cultured in suspension in CHO SFMII medium supplemented with 400 μg/ml G418. The cells are harvested by centrifugation at 300 g for 10 min at room temperature. The cell pellet is resuspended in Phosphate Buffer Saline (PBS) including a protease inhibitor mix (Complete, Roche) and adjusted to a concentration of 10E7 cells/ml. The CHO-K1-hCRTH2 cells are disrupted by nitrogen […] to obtain the membrane preparation. Cell debris is removed by centrifugation (500 g at 4° C., 30 min) and the supernatant is transferred into fresh tubes followed by a second centrifugation at 40000 g for 1 h at 4° C. to sediment the membranes. The membranes are suspended in SPA incubation buffer (50 mM Tris HCl, 10 mM MgCl2, 150 mM NaCl, 1 mM EDTA, pH 7.4) without bovine serum albumin, homogenized by passing through a single use needle (Terumo, 23G×1″), and stored in aliquots at −80° C.
The CRTH2 receptor binding assay is performed in a scintillation proximity assay (SPA) format with the radioligand [^3H]-PGD2 (Perkin Elmer, NET616000MC). CHO-K1-hCRTH2 cell membranes are again homogenized by passing through a single use needle (Terumo, 23G×1″) and diluted in SPA incubation buffer in suitable concentrations (0.5-10 μg protein/well). The SPA assay is set up in 96 well microtiter plates (Perkin Elmer, CatNo. 6005040) in SPA incubation buffer with a final volume of 200 μl per well and final concentration of 50 mM Tris-HCl, 10 mM MgCl2, 150 mM NaCl, 1 mM EDTA pH 7.4, 0.1% bovine serum albumin). The SPA assay mixture contains 60 μl of the membrane suspension, 80 μl of Wheat Germ Agglutinin coated PVT beads (GE Healthcare, RPNQ-0001, 0.3 mg/well), 40 μl of [3H]-PGD2 diluted in SPA buffer to a final concentration of 1 nM (50 000 dpm) and 20 μl of the test compound (dissolved in dimethylsulfoxid). The SPA assay mixture is incubated for 3 h at room temperature. Bound radioactivity is determined with a scintillation counter (Micro Beta Trilux, Wallac).
The binding of [^3H]-PGD2 to CHO-K1-hCRTH2 cell membranes is determined in the absence (total binding, Bo) and presence (non-specific binding, NSB) of unlabelled PGD2 (1 μM, Cayman Chemical, Cat No 12010) or a reference CRTH2 antagonist (10 μM CAY10471, Cayman Chemical, Cat No 10006735).
Determination of the affinity of a test compound is calculated by subtraction of the non-specific binding (NSB) from the total binding (Bo) or the binding in the presence of the test compound (B) at a given compound concentration. […] The Bo-NSB value is set to 0% inhibition.

SMILES | Ki
Cc1nn(Cc2ccc(NC(=O)c3cc4ccccc4[nH]3)cc2F)c(C)c1CC(=O)O [Cmpd 1] | 0.8 nM
Cc1nn(Cc2ccc(NC(=O)c3oc4ccc(F)cc4c3C)cc2)c(C)c1CC(=O)O [Cmpd 4] | 0.8 nM
Cc1nn(Cc2ccc(NC(=O)c3cc4ccccc4o3)cc2)c(C)c1CC(=O)O [Cmpd 26] | 0.8 nM
Cc1nn(Cc2ccc(NC(=O)c3oc4ccc(F)cc4c3C)cc2F)c(C)c1CC(=O)O [Cmpd 27] | 0.6 nM
CCn1c(C(=O)Nc2ccc(Cn3nc(C)c(CC(=O)O)c3C)c(F)c2)cc2cc(F)ccc21 [Cmpd 32] | 0.2 nM
Cc1nn(Cc2ccc(NC(=O)c3oc4ccc(Br)cc4c3C)cc2F)c(C)c1CC(=O)O [Cmpd 45] | 0.3 nM
CCc1c(C(=O)Nc2ccc(Cn3nc(C)c(CC(=O)O)c3C)cc2)oc2ccc(F)cc12 [Cmpd 48] | 1.2 nM
